“Also recorded” adds a separate entry of the source.
Columns and labels:
HCM mice (αMHC^719/+) [1] = assay: Heart-to-body weight ratio ex vivo after organ removal; type: in vivo, mouse; conditions: αMHC^719/+ mice, pioglitazone 10 mg/kg of body weight/day orally, 6 weeks, vs untreated αMHC^719/+ mice, p=0.008
Experimental: The mice were weighed and euthanized to calculate the heart-to-body weight ratio. The thorax was opened quickly, and the heart was removed and washed twice in cold PBS solution. The large vessels and connective tissue were removed, the heart was swapped dry and weighed, and the heart and body weight of the mouse were determined.

[2] = system: radical oxygen species (ROS); assay: Radical oxygen species (ROS) in left ventricular myocardium by electron paramagnetic resonance spectroscopy; type: in vivo, mouse; conditions: αMHC^719/+ mice treated with pioglitazone vs untreated HCM mice, 6 weeks, p=0.053
Description: Reduction of oxidative stress: The treatment with PPARγ agonists leads to reduced expression of hypoxia-inducible factor 1-alpha, a major transcription factor in the redox signaling pathway. As a result, less radical oxygen species are produced in the left ventricular myocardium, thereby reducing cellular oxidative stress. A protective effect on the pathological remodeling of the cardiac muscle was observed.
Electron paramagnetic resonance (EPR) was applied as described in order to calculate the production of radical oxygen species (ROS) in the left ventricular myocardium^46-48. […] The analysis of ROS generation was carried out at 37° C. for 10 minutes with 20 scans in an Escan EPR spectrometer under temperature control (Noxygen) and the following parameters: microwave power 23.89 mW; center field 3459-3466 G; steep width 10 G, frequency 9.7690 GHz and modulation amplitude 2.93 G. ROS generation was calculated by means of linear regression and normalized to the cellular protein content.

cardiac myosin = assay: Mant-ATP assay of left ventricular cardiac myosins (DRX vs SRX state); type: in vivo, mouse; conditions: αMHC^719/+ mice treated with pioglitazone vs untreated αMHC^719/+ mice
Description: FIG. 5 Examination of the percentages of left ventricular cardiac myosins in the DRX (disordered relaxation) compared to the SRX (super-relaxed) state using a fluorescent ATP analog. […] The treatment of the HCM mouse model with pioglitazone thus also has a positive effect on the functional properties of the left ventricular heart muscle tissue. The results of this Mant-ATP assay indicate that it was possible to prevent the changes in the biophysical properties of the myosins, which are described as being the cause of hypertrophic cardiomyopathy, in the mice treated with pioglitazone.
Cardiac myosin ATPase activity was measured by Mant-ATP assay, which examines cardiomyocyte contractility and relaxation indirectly by measuring the activity of cardiac myosin ATPase. For this purpose, the Mant-ATP assay (Roche) was applied in the left ventricular myocardium of the different mouse groups, which was shock-frosted in liquid nitrogen and stored in frozen state at −80° C. Mant-ATP is a fluorescent, […] ATP that binds the head of the cardiac myosin. The assay measures the release of Mant-ATP after addition of ATP^44,45.

[3] = system: αMHC^719/+ HCM mouse model; assay: Preclinical αMHC^719/+ HCM mouse model, overall summary of results; type: in vivo; conditions: oral administration in the αMHC^719/+ HCM mouse model
Experimental: The examinations were carried out on an established HCM mouse model, in which an arginine-to-tryptophan mutation at position 719 of the heavy chain of the cardiac mouse alpha-myosin gene was effected by homologous recombination (referred to as αMHC^719/+)^38. Such genetically modified mice increasingly develop the typical pathognomonic disease characteristics of hypertrophic cardiomyopathy such as myocardial hypertrophy and fibrosis with increasing age. The phenotype of this genetically generated HCM mouse model thus simulates the phenotype of HCM patients affected^36,37,38. The manifestation of the disease can be accelerated by subcutaneous administration of the calcineurin inhibitor cyclosporin A (CsA)^9.
Between their 6th and 12th postnatal week, all mice were injected subcutaneously with cyclosporin A (CsA) to accelerate hypertrophic remodeling in the myocardium in the HCM mouse model^9. Half of the mice were treated with the PPARγ agonists rosiglitazone and pioglitazone from the group of thiazolidinediones between their 6th and 12th postnatal week. In their 12th postnatal week, they were subjected to in vivo transthoracic echocardiography. The animals were then euthanized for ex vivo examination (organ removal, histopathology, and determination of radical oxygen species, of mRNA and protein expression in the tissue) (see FIG. 10).D

HCM mice (αMHC^719/+) [4] = assay: Histopathology of left ventricular myocardium, Masson's trichrome (myocardial fibrosis), experimental setup A; type: in vivo, mouse
Description: FIG. 6 Histopathology of the left ventricular myocardium of wild-type (WT) and HCM mice (αMHC^719/+) with and without treatment with pioglitazone (PIO) after 6 weeks; myocardial fibrosis appears in medium gray in the Masson's trichrome-stained histological sections. […] HCM mice show massive myocardial fibrosis (white arrows in (C)).
In order to quantify myocardial fibrosis, the removed hearts were fixed in 4% paraformaldehyde, dehydrated, and placed in paraffin, as described above^37,42,43. 5-μm sections were stained with Masson's trichrome and hematoxylin-eosin. The extent of myocardial fibrosis was quantified by a digitized method by calculating the percentage of cardiac muscle portions stained blue with Masson's trichrome in relation to the overall stained cardiac muscle. Perivascular and intramurine structures, the endocardium, or trabeculas were excluded in the calculation of the percentage of fibrosis.

[5] = system: Acta1, Col1a1, Col1a2, Cyba, Gdf15, Hif1a, Icam1, IL33, Mmp2, Nfkb1, Nox4, Nppa, Postn, Tgfb1, Tgfb2, Tgfb3; assay: mRNA expression of pro-hypertrophic, pro-fibrotic and pro-inflammatory genes in left ventricular myocardium (RNA sequencing); type: in vivo, mouse; conditions: αMHC^719/+ mice treated with pioglitazone vs untreated, p<0.001
Experimental: FIG. 8 The mRNA expression of pro-hypertrophic, pro-fibrotic, and pro-inflammatory genes such as Acta1, Col1a1, Col1a2, Cyba, Gdf15, Hif1a, Icam1, IL33, Mmp2, Nfkb1, Nox4, Nppa, Postn, Tgfb1, Tgfb2, and Tgfb3 is increased in the left ventricular myocardium of αMHC^719/+ HCM mice (HET) compared to wild-type mice (WT) (HET/WT). […] Strand-specific, polyA-enriched RNA sequencing was carried out as described above^51. The RNA was isolated using the AllPrep RNA Kit (Qiagen). The RNA integrity number (RIN) was determined using the Agilent 2100 BioAnalyzer (RNA 6000 Nano Kit, Agilent). In order to prepare the library, 1 μg RNA was poly(A)-selected, fragmented, and reverse-transcribed with the Elute, Prime, Fragment Mix (Illumina). […] RNA libraries were tested for quality and quantity using the Agilent 2100 BioAnalyzer and the Quant-iT PicoGreen dsDNA Assay Kit (Life Technologies). […] The STAR Aligner (version 2.4.2a)^52 with modified parameter settings (--twopassMode=Basic) was used for the split-read alignment against the […] genome assembly hg19 (GRCh37) and the UCSC knownGene annotation. HTseq-count (version 0.6.0)^53 was used to quantify the number of reads mapped to annotated genes. FPKM values (fragments per kilobase of transcript per million fragments mapped) were calculated using custom scripts. […]

Compound: CCc1ccc(CCOc2ccc(CC3SC(=O)NC3=O)cc2)nc1 (racemic) [pioglitazone, (RS)-5-{p-[2-(5-ethyl-2-pyridyl)ethoxy]benzyl}-2,4-thiazolidinedione]
- development of myocardial hypertrophy (heart-to-body weight ratio ex vivo) (HCM mice (αMHC^719/+) [1]): completely inhibited
- production of radical oxygen species in the left ventricular myocardium [2]: significantly decreased
- production of radical oxygen species in the left ventricular myocardium ([2]; listed as poglitazone): significantly reduced
- percentages of left ventricular cardiac myosins in the DRX compared to the SRX state (cardiac myosin): significant shift towards the SRX state; also recorded: prevents the functional biophysical changes
- changes in biophysical properties in the heart muscle cell and onset of myocardial hypertrophy and fibrosis [3]: largely prevents
- myocardial fibrosis in wild-type mice (HCM mice (αMHC^719/+) [4]; wild-type mice with treatment with pioglitazone, 6 weeks): hardly any fibrosis
- formation of myocardial fibrosis (histological sections) (HCM mice (αMHC^719/+) [4]; αMHC^719/+ mice, pioglitazone 10 mg/kg of body weight/day orally, 6 weeks): almost completely prevents the formation of myocardial fibrosis
- fibrosis after semi-automated threshold detection of collagen (ImageJ) (HCM mice (αMHC^719/+) [4]; αMHC^719/+ mice, pioglitazone 10 mg/kg/day orally vs untreated HCM mice, p=0.017): significantly less fibrosis
- overexpression of pro-hypertrophic, pro-fibrotic and pro-inflammatory genes (HET+PIO/HET) [5]: significantly reduced or completely prevented; also recorded: prevents

— patent US20240180887A1, “USE OF PPAR(gamma) AGONISTS OR MPC INHIBITORS FOR TREATING PRIMARY, INNATE DISEASES OF THE CARDIAC MUSCLE (CARDIOMYOPATHIES)” (PREVENTAGE THERAPEUTICS GMBH, priority 2021, published 2024)
